Measured values: the supplement of paper PMC10307832

Tests used:
Assay in all cases: relative viability (nuclei count vs DMSO), 5 days (fraction); higher = more cells survive
NCI-H1355 = tested on: NCI-H1355
Summary of the method: (§1)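 Medians of duplicate plates are given as relative viability. That measure is the nuclei count in treated wells divided by the count in vehicle wells. Counts were taken on 4× images of lung cancer cell lines in 1536-well plates, 5 days after pin-tool dosing the day after seeding with one drug alone or a fixed anchor-drug dose plus five library-drug doses (not always all listed) in √10 steps.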

LK-2 = tested on: LK-2
Summary of the method: as §1

A549 = tested on: A549
Summary of the method: as §1

EBC-1 = tested on: EBC-1
Summary of the method: as §1

Calu-6 = tested on: Calu-6
Summary of the method: as §1

COR-L 105 = tested on: COR-L 105
Summary of the method: as §1

IA-LM = tested on: IA-LM
Summary of the method: as §1

NCI-H520 = tested on: NCI-H520
Summary of the method: as §1

NCI-H1299 = tested on: NCI-H1299
Summary of the method: as §1

LCLC-103H = tested on: LCLC-103H
Summary of the method: as §1

NCI-H1703 = tested on: NCI-H1703
Summary of the method: as §1

## O=c1cc(-c2cccc3c2Sc2ccccc2S3)oc(N2CCOCC2)c1 + Cc1nc(NC(=O)N2CCC[C@H]2C(N)=O)sc1-c1ccnc(C(C)(C)C(F)(F)F)c1 [Alpelisib] (partner 2 µM)
NCI-H1355; first compound 0.08 µM
  relative viability: 0.726
NCI-H1355; first compound 0.253 µM
  relative viability: 0.949
NCI-H1355; first compound 0.8 µM
  relative viability: 0.601
NCI-H1355; first compound 2.53 µM
  relative viability: 0.748
NCI-H1355; first compound 8 µM
  relative viability: 0.704
LK-2; first compound 0.08 µM
  relative viability: 1.22
LK-2; first compound 0.253 µM
  relative viability: 1.11
LK-2; first compound 0.8 µM
  relative viability: 1.49
LK-2; first compound 2.53 µM
  relative viability: 0.995
LK-2; first compound 8 µM
  relative viability: 1.75
A549; first compound 0.08 µM
  relative viability: 0.738
A549; first compound 0.253 µM
  relative viability: 0.958
A549; first compound 0.8 µM
  relative viability: 0.857
A549; first compound 2.53 µM
  relative viability: 0.659
A549; first compound 8 µM
  relative viability: 0.653
EBC-1; first compound 0.08 µM
  relative viability: 0.792
EBC-1; first compound 0.253 µM
  relative viability: 1.03
EBC-1; first compound 0.8 µM
  relative viability: 0.816
EBC-1; first compound 2.53 µM
  relative viability: 0.755
EBC-1; first compound 8 µM
  relative viability: 0.522
Calu-6; first compound 0.08 µM
  relative viability: 0.841
Calu-6; first compound 0.253 µM
  relative viability: 1.12
Calu-6; first compound 0.8 µM
  relative viability: 1
Calu-6; first compound 2.53 µM
  relative viability: 0.923
Calu-6; first compound 8 µM
  relative viability: 1.06
COR-L 105; first compound 0.08 µM
  relative viability: 1.1
COR-L 105; first compound 0.253 µM
  relative viability: 1.13
COR-L 105; first compound 0.8 µM
  relative viability: 0.862
COR-L 105; first compound 2.53 µM
  relative viability: 0.902
COR-L 105; first compound 8 µM
  relative viability: 1.12
IA-LM; first compound 0.08 µM
  relative viability: 0.664
IA-LM; first compound 0.253 µM
  relative viability: 1.06
IA-LM; first compound 0.8 µM
  relative viability: 0.852
IA-LM; first compound 2.53 µM
  relative viability: 0.862
IA-LM; first compound 8 µM
  relative viability: 0.677
NCI-H520; first compound 0.08 µM
  relative viability: 0.874
NCI-H520; first compound 0.253 µM
  relative viability: 0.979
NCI-H520; first compound 0.8 µM
  relative viability: 1.09
NCI-H520; first compound 2.53 µM
  relative viability: 1.03
NCI-H520; first compound 8 µM
  relative viability: 0.971
NCI-H1299; first compound 0.08 µM
  relative viability: 1.03
NCI-H1299; first compound 0.253 µM
  relative viability: 1.09
NCI-H1299; first compound 0.8 µM
  relative viability: 1.13
NCI-H1299; first compound 2.53 µM
  relative viability: 1.03
NCI-H1299; first compound 8 µM
  relative viability: 1.08
LCLC-103H; first compound 0.08 µM
  relative viability: 0.994
LCLC-103H; first compound 0.253 µM
  relative viability: 1.06
LCLC-103H; first compound 0.8 µM
  relative viability: 0.837
LCLC-103H; first compound 2.53 µM
  relative viability: 0.971
LCLC-103H; first compound 8 µM
  relative viability: 0.963
NCI-H1703; first compound 0.253 µM
  relative viability: 0.459
NCI-H1703; first compound 0.8 µM
  relative viability: 0.296
NCI-H1703; first compound 2.53 µM
  relative viability: 0.245
NCI-H1703; first compound 8 µM
  relative viability: 0.295

## CCN(CC)CCCCNc1ncc2cc(-c3cc(OC)cc(OC)c3)c(NC(=O)NC(C)(C)C)nc2n1 + Cc1nc(NC(=O)N2CCC[C@H]2C(N)=O)sc1-c1ccnc(C(C)(C)C(F)(F)F)c1 [Alpelisib] (partner 2 µM)
NCI-H1355; first compound 0.01 µM
  relative viability: 0.776
NCI-H1355; first compound 0.03162 µM
  relative viability: 0.847
NCI-H1355; first compound 0.1 µM
  relative viability: 0.894
NCI-H1355; first compound 0.3162 µM
  relative viability: 0.839
NCI-H1355; first compound 1 µM
  relative viability: 0.785
LK-2; first compound 0.01 µM
  relative viability: 0.679
LK-2; first compound 0.03162 µM
  relative viability: 0.891
LK-2; first compound 0.1 µM
  relative viability: 0.848
LK-2; first compound 0.3162 µM
  relative viability: 0.6
LK-2; first compound 1 µM
  relative viability: 0.301
A549; first compound 0.01 µM
  relative viability: 0.726
A549; first compound 0.03162 µM
  relative viability: 0.801
A549; first compound 0.1 µM
  relative viability: 0.985
A549; first compound 0.3162 µM
  relative viability: 0.828
A549; first compound 1 µM
  relative viability: 0.57
EBC-1; first compound 0.01 µM
  relative viability: 0.831
EBC-1; first compound 0.03162 µM
  relative viability: 0.887
EBC-1; first compound 0.1 µM
  relative viability: 0.965
EBC-1; first compound 0.3162 µM
  relative viability: 0.918
EBC-1; first compound 1 µM
  relative viability: 0.664
Calu-6; first compound 0.01 µM
  relative viability: 1
Calu-6; first compound 0.03162 µM
  relative viability: 0.996
Calu-6; first compound 0.1 µM
  relative viability: 0.868
Calu-6; first compound 0.3162 µM
  relative viability: 1.09
Calu-6; first compound 1 µM
  relative viability: 1.01
COR-L 105; first compound 0.01 µM
  relative viability: 1
COR-L 105; first compound 0.03162 µM
  relative viability: 0.981
COR-L 105; first compound 0.1 µM
  relative viability: 1.06
COR-L 105; first compound 0.3162 µM
  relative viability: 1.01
COR-L 105; first compound 1 µM
  relative viability: 0.917
IA-LM; first compound 0.01 µM
  relative viability: 0.62
IA-LM; first compound 0.03162 µM
  relative viability: 0.659
IA-LM; first compound 0.1 µM
  relative viability: 0.672
IA-LM; first compound 0.3162 µM
  relative viability: 0.836
IA-LM; first compound 1 µM
  relative viability: 0.597
NCI-H520; first compound 0.01 µM
  relative viability: 1.07
NCI-H520; first compound 0.03162 µM
  relative viability: 0.898
NCI-H520; first compound 0.1 µM
  relative viability: 1.16
NCI-H520; first compound 0.3162 µM
  relative viability: 0.662
NCI-H520; first compound 1 µM
  relative viability: 0.332
NCI-H1299; first compound 0.01 µM
  relative viability: 1.12
NCI-H1299; first compound 0.03162 µM
  relative viability: 1.12
NCI-H1299; first compound 0.1 µM
  relative viability: 1.08
NCI-H1299; first compound 0.3162 µM
  relative viability: 1.04
NCI-H1299; first compound 1 µM
  relative viability: 1.04
LCLC-103H; first compound 0.01 µM
  relative viability: 1.09
LCLC-103H; first compound 0.03162 µM
  relative viability: 0.967
LCLC-103H; first compound 0.1 µM
  relative viability: 0.975
LCLC-103H; first compound 0.3162 µM
  relative viability: 1.01
LCLC-103H; first compound 1 µM
  relative viability: 1.01
NCI-H1703; first compound 0.01 µM
  relative viability: 0.262
NCI-H1703; first compound 0.1 µM
  relative viability: 0.397
NCI-H1703; first compound 0.3162 µM
  relative viability: 0.45
NCI-H1703; first compound 1 µM
  relative viability: 0.292

## COc1nc(C)cnc1NS(=O)(=O)c1cccnc1-c1ccc(-c2nnco2)cc1 [Zibotentan] + Cc1nc(NC(=O)N2CCC[C@H]2C(N)=O)sc1-c1ccnc(C(C)(C)C(F)(F)F)c1 [Alpelisib] (partner 2 µM)
NCI-H1355; first compound 0.08 µM
  relative viability: 0.942
NCI-H1355; first compound 0.253 µM
  relative viability: 0.898
NCI-H1355; first compound 0.8 µM
  relative viability: 0.825
NCI-H1355; first compound 2.53 µM
  relative viability: 0.794
LK-2; first compound 0.08 µM
  relative viability: 1.08
LK-2; first compound 0.253 µM
  relative viability: 0.911
LK-2; first compound 0.8 µM
  relative viability: 0.889
LK-2; first compound 2.53 µM
  relative viability: 1.46
A549; first compound 0.08 µM
  relative viability: 0.852
A549; first compound 0.253 µM
  relative viability: 0.578
A549; first compound 0.8 µM
  relative viability: 0.704
A549; first compound 2.53 µM
  relative viability: 0.88
EBC-1; first compound 0.08 µM
  relative viability: 0.826
EBC-1; first compound 0.253 µM
  relative viability: 0.855
EBC-1; first compound 0.8 µM
  relative viability: 0.944
EBC-1; first compound 2.53 µM
  relative viability: 0.857
Calu-6; first compound 0.08 µM
  relative viability: 1
Calu-6; first compound 0.253 µM
  relative viability: 0.986
Calu-6; first compound 0.8 µM
  relative viability: 0.98
Calu-6; first compound 2.53 µM
  relative viability: 1.1
COR-L 105; first compound 0.08 µM
  relative viability: 1.13
COR-L 105; first compound 0.253 µM
  relative viability: 0.892
COR-L 105; first compound 0.8 µM
  relative viability: 1.21
COR-L 105; first compound 2.53 µM
  relative viability: 0.93
IA-LM; first compound 0.08 µM
  relative viability: 0.799
IA-LM; first compound 0.253 µM
  relative viability: 0.725
IA-LM; first compound 0.8 µM
  relative viability: 0.646
IA-LM; first compound 2.53 µM
  relative viability: 0.812
NCI-H520; first compound 0.08 µM
  relative viability: 0.928
NCI-H520; first compound 0.253 µM
  relative viability: 0.848
NCI-H520; first compound 0.8 µM
  relative viability: 0.768
NCI-H520; first compound 2.53 µM
  relative viability: 0.972
NCI-H1299; first compound 0.08 µM
  relative viability: 1.06
NCI-H1299; first compound 0.253 µM
  relative viability: 1.05
NCI-H1299; first compound 0.8 µM
  relative viability: 1.06
NCI-H1299; first compound 2.53 µM
  relative viability: 1.07
LCLC-103H; first compound 0.08 µM
  relative viability: 0.955
LCLC-103H; first compound 0.253 µM
  relative viability: 0.969
LCLC-103H; first compound 0.8 µM
  relative viability: 1.01
LCLC-103H; first compound 2.53 µM
  relative viability: 1.05
NCI-H1703; first compound 0.08 µM
  relative viability: 0.363
NCI-H1703; first compound 0.253 µM
  relative viability: 0.386
NCI-H1703; first compound 0.8 µM
  relative viability: 0.464
NCI-H1703; first compound 2.53 µM
  relative viability: 0.237
